The compounds below were run against T1, Nuclear factor erythroid 2-related factor 2 (Homo sapiens) (UniProt Q16236) (assay: Activation of Nrf2 in human HepG2-ARE-C8 cells assessed as upregulation of ARE level at 20 uM after 12 hrs by luciferase reporter gene assay relative to control). Conditions: not given.
T1 sequence (whole entry): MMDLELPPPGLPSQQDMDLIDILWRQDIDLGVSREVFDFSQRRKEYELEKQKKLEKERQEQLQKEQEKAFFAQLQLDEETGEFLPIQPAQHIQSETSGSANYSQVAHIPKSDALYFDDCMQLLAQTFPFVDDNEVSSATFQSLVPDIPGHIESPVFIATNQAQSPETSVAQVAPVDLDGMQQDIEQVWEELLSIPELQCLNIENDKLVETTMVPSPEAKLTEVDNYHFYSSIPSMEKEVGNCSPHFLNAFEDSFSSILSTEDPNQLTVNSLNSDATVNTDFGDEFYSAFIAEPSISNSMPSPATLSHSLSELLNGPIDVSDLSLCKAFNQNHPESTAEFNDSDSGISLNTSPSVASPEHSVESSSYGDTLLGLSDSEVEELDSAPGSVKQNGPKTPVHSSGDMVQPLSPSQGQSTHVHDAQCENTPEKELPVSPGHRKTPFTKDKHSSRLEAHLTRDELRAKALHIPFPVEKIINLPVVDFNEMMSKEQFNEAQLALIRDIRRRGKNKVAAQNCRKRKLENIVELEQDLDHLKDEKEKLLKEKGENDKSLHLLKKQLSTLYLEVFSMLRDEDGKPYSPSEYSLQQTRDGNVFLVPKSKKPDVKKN
Type: cell-based

Row | fold change (FC) | SMILES
1 | 1.33 | N#Cc1ccccc1-c1nc(-c2ccc3nc[nH]c3c2)no1
2 | 2.67 | Oc1ccccc1-c1nc(-c2ccc3nc[nH]c3c2)no1
3 | 6.23 | Oc1ccc(-c2nc(-c3ccc4nc[nH]c4c3)no2)cc1
4 | 20.6 | Cc1ccc(-c2nc(-c3ccc4nc[nH]c4c3)no2)cc1
5 | 14.2 | Cc1cccc(-c2nc(-c3ccc4nc[nH]c4c3)no2)c1
6 | 3.23 | COc1cc(-c2nc(-c3ccc4nc[nH]c4c3)no2)cc(OC)c1OC
7 | 20.5 | c1ccc2nc(-c3nc(-c4ccc5nc[nH]c5c4)no3)ccc2c1
8 | 5.96 | COc1ccccc1-c1nc(-c2ccc3nc[nH]c3c2)no1
9 | 17.4 | Cn1cnc2ccc(-c3noc(-c4ccccc4)n3)cc21
10 | 11.6 | O=[N+]([O-])c1cccc(-c2nc(-c3ccc4nc[nH]c4c3)no2)c1
11 | 0.87 | N#Cc1cccc(-c2nc(-c3ccc4nc[nH]c4c3)no2)c1
12 | 9.34 | CCc1ccc(-c2nc(-c3ccc4nc[nH]c4c3)no2)cc1
13 | 30.8 | CCCCc1ccc(-c2nc(-c3ccc4nc[nH]c4c3)no2)cc1

What follows are compounds tested on HCT-116 (assay: Cytotoxicity against human HCT116 cells assessed as reduction of cell proliferation at 80 uM after 24 hrs by MTT assay). Conditions: hct-116, 24 h.
Type: cell-based

Row | SMILES | Activity
14 | N#Cc1ccccc1-c1nc(-c2ccc3nc[nH]c3c2)no1 | Non-toxic
15 | Oc1ccccc1-c1nc(-c2ccc3nc[nH]c3c2)no1 | Non-toxic
16 | Oc1ccc(-c2nc(-c3ccc4nc[nH]c4c3)no2)cc1 | Non-toxic
17 | Cc1ccc(-c2nc(-c3ccc4nc[nH]c4c3)no2)cc1 | Non-toxic
18 | Cc1cccc(-c2nc(-c3ccc4nc[nH]c4c3)no2)c1 | Non-toxic
19 | COc1cc(-c2nc(-c3ccc4nc[nH]c4c3)no2)cc(OC)c1OC | Non-toxic
20 | c1ccc2nc(-c3nc(-c4ccc5nc[nH]c5c4)no3)ccc2c1 | Non-toxic
21 | COc1ccccc1-c1nc(-c2ccc3nc[nH]c3c2)no1 | Non-toxic
22 | Cn1cnc2ccc(-c3noc(-c4ccccc4)n3)cc21 | Non-toxic
23 | O=[N+]([O-])c1cccc(-c2nc(-c3ccc4nc[nH]c4c3)no2)c1 | Non-toxic
24 | N#Cc1cccc(-c2nc(-c3ccc4nc[nH]c4c3)no2)c1 | Non-toxic
25 | CCc1ccc(-c2nc(-c3ccc4nc[nH]c4c3)no2)cc1 | Non-toxic
26 | CCCCc1ccc(-c2nc(-c3ccc4nc[nH]c4c3)no2)cc1 | Non-toxic

Each compound was assayed against T1, Nuclear factor erythroid 2-related factor 2 (Homo sapiens) (assay: Activation of Nrf2 in human HepG2-ARE-C8 cells assessed as upregulation of ARE level at 80 uM after 12 hrs by luciferase reporter gene assay relative to control). Conditions: not given.
Type: cell-based

Row | fold change (FC) | SMILES
27 | 1.39 | N#Cc1ccccc1-c1nc(-c2ccc3nc[nH]c3c2)no1
28 | 1.34 | Oc1ccccc1-c1nc(-c2ccc3nc[nH]c3c2)no1
29 | 8.81 | Oc1ccc(-c2nc(-c3ccc4nc[nH]c4c3)no2)cc1
30 | 12.7 | Cc1ccc(-c2nc(-c3ccc4nc[nH]c4c3)no2)cc1
31 | 17.3 | Cc1cccc(-c2nc(-c3ccc4nc[nH]c4c3)no2)c1
32 | 13.9 | COc1cc(-c2nc(-c3ccc4nc[nH]c4c3)no2)cc(OC)c1OC
33 | 6.61 | c1ccc2nc(-c3nc(-c4ccc5nc[nH]c5c4)no3)ccc2c1
34 | 8.46 | COc1ccccc1-c1nc(-c2ccc3nc[nH]c3c2)no1
35 | 3.33 | Cn1cnc2ccc(-c3noc(-c4ccccc4)n3)cc21
36 | 16.5 | O=[N+]([O-])c1cccc(-c2nc(-c3ccc4nc[nH]c4c3)no2)c1
37 | 3.16 | N#Cc1cccc(-c2nc(-c3ccc4nc[nH]c4c3)no2)c1
38 | 4.82 | CCc1ccc(-c2nc(-c3ccc4nc[nH]c4c3)no2)cc1
39 | 14.8 | CCCCc1ccc(-c2nc(-c3ccc4nc[nH]c4c3)no2)cc1

These compounds were tested against T1, Nuclear factor erythroid 2-related factor 2 (Homo sapiens) (assay: Activation of Nrf2 in human HepG2-ARE-C8 cells assessed as upregulation of ARE level at 0.02 uM after 12 hrs by luciferase reporter gene assay relative to control). Conditions: not given.
Type: cell-based

Row | fold change (FC) | SMILES
40 | 1.36 | N#Cc1ccccc1-c1nc(-c2ccc3nc[nH]c3c2)no1
41 | 1.72 | Oc1ccccc1-c1nc(-c2ccc3nc[nH]c3c2)no1
42 | 1.56 | Oc1ccc(-c2nc(-c3ccc4nc[nH]c4c3)no2)cc1
43 | 2.11 | Cc1ccc(-c2nc(-c3ccc4nc[nH]c4c3)no2)cc1
44 | 1.44 | Cc1cccc(-c2nc(-c3ccc4nc[nH]c4c3)no2)c1
45 | 1.31 | COc1cc(-c2nc(-c3ccc4nc[nH]c4c3)no2)cc(OC)c1OC
46 | 1.61 | c1ccc2nc(-c3nc(-c4ccc5nc[nH]c5c4)no3)ccc2c1
47 | 1.24 | COc1ccccc1-c1nc(-c2ccc3nc[nH]c3c2)no1
48 | 2.03 | Cn1cnc2ccc(-c3noc(-c4ccccc4)n3)cc21
49 | 1.43 | O=[N+]([O-])c1cccc(-c2nc(-c3ccc4nc[nH]c4c3)no2)c1
50 | 1.26 | N#Cc1cccc(-c2nc(-c3ccc4nc[nH]c4c3)no2)c1
51 | 1.37 | CCc1ccc(-c2nc(-c3ccc4nc[nH]c4c3)no2)cc1
52 | 1.55 | CCCCc1ccc(-c2nc(-c3ccc4nc[nH]c4c3)no2)cc1

These compounds were tested against T1, Nuclear factor erythroid 2-related factor 2 (Homo sapiens) (assay: Activation of Nrf2 in human HepG2-ARE-C8 cells assessed as upregulation of ARE level at 0.2 uM after 12 hrs by luciferase reporter gene assay relative to control). Conditions: not given.
Type: cell-based

Row | fold change (FC) | SMILES
53 | 1.48 | N#Cc1ccccc1-c1nc(-c2ccc3nc[nH]c3c2)no1
54 | 1.54 | Oc1ccccc1-c1nc(-c2ccc3nc[nH]c3c2)no1
55 | 1.65 | Oc1ccc(-c2nc(-c3ccc4nc[nH]c4c3)no2)cc1
56 | 3.29 | Cc1ccc(-c2nc(-c3ccc4nc[nH]c4c3)no2)cc1
57 | 1.94 | Cc1cccc(-c2nc(-c3ccc4nc[nH]c4c3)no2)c1
58 | 2.24 | COc1cc(-c2nc(-c3ccc4nc[nH]c4c3)no2)cc(OC)c1OC
59 | 2.04 | c1ccc2nc(-c3nc(-c4ccc5nc[nH]c5c4)no3)ccc2c1
60 | 1.39 | COc1ccccc1-c1nc(-c2ccc3nc[nH]c3c2)no1
61 | 3.41 | Cn1cnc2ccc(-c3noc(-c4ccccc4)n3)cc21
62 | 1.56 | O=[N+]([O-])c1cccc(-c2nc(-c3ccc4nc[nH]c4c3)no2)c1
63 | 1.36 | N#Cc1cccc(-c2nc(-c3ccc4nc[nH]c4c3)no2)c1
64 | 1.75 | CCc1ccc(-c2nc(-c3ccc4nc[nH]c4c3)no2)cc1
65 | 2.08 | CCCCc1ccc(-c2nc(-c3ccc4nc[nH]c4c3)no2)cc1

The compounds below were run against T1, Nuclear factor erythroid 2-related factor 2 (Homo sapiens) (assay: Activation of Nrf2 in human HepG2-ARE-C8 cells assessed as upregulation of ARE level at 2 uM after 12 hrs by luciferase reporter gene assay relative to control). Conditions: not given.
Type: cell-based

Row | fold change (FC) | SMILES
66 | 2.46 | N#Cc1ccccc1-c1nc(-c2ccc3nc[nH]c3c2)no1
67 | 1.53 | Oc1ccccc1-c1nc(-c2ccc3nc[nH]c3c2)no1
68 | 2.19 | Oc1ccc(-c2nc(-c3ccc4nc[nH]c4c3)no2)cc1
69 | 7.78 | Cc1ccc(-c2nc(-c3ccc4nc[nH]c4c3)no2)cc1
70 | 4.84 | Cc1cccc(-c2nc(-c3ccc4nc[nH]c4c3)no2)c1
71 | 2.41 | COc1cc(-c2nc(-c3ccc4nc[nH]c4c3)no2)cc(OC)c1OC
72 | 4.35 | c1ccc2nc(-c3nc(-c4ccc5nc[nH]c5c4)no3)ccc2c1
73 | 1.62 | COc1ccccc1-c1nc(-c2ccc3nc[nH]c3c2)no1
74 | 18.2 | Cn1cnc2ccc(-c3noc(-c4ccccc4)n3)cc21
75 | 4.74 | O=[N+]([O-])c1cccc(-c2nc(-c3ccc4nc[nH]c4c3)no2)c1
76 | 1.42 | N#Cc1cccc(-c2nc(-c3ccc4nc[nH]c4c3)no2)c1
77 | 2.56 | CCc1ccc(-c2nc(-c3ccc4nc[nH]c4c3)no2)cc1
78 | 10.9 | CCCCc1ccc(-c2nc(-c3ccc4nc[nH]c4c3)no2)cc1

Each compound was assayed against T1, Nuclear factor erythroid 2-related factor 2 (Homo sapiens) (assay: Activation of Nrf2 in human HepG2-ARE-C8 cells assessed as upregulation of ARE level at 160 uM after 12 hrs by luciferase reporter gene assay relative to control). Conditions: not given.
Type: cell-based

Row | fold change (FC) | SMILES
79 | 2.09 | N#Cc1ccccc1-c1nc(-c2ccc3nc[nH]c3c2)no1
80 | 1.17 | Oc1ccccc1-c1nc(-c2ccc3nc[nH]c3c2)no1
81 | 7.35 | Oc1ccc(-c2nc(-c3ccc4nc[nH]c4c3)no2)cc1
82 | 9.22 | Cc1ccc(-c2nc(-c3ccc4nc[nH]c4c3)no2)cc1
83 | 8.99 | Cc1cccc(-c2nc(-c3ccc4nc[nH]c4c3)no2)c1
84 | 22.5 | COc1cc(-c2nc(-c3ccc4nc[nH]c4c3)no2)cc(OC)c1OC
85 | 7.09 | c1ccc2nc(-c3nc(-c4ccc5nc[nH]c5c4)no3)ccc2c1
86 | 5.85 | COc1ccccc1-c1nc(-c2ccc3nc[nH]c3c2)no1
87 | 1.75 | Cn1cnc2ccc(-c3noc(-c4ccccc4)n3)cc21
88 | 11.5 | O=[N+]([O-])c1cccc(-c2nc(-c3ccc4nc[nH]c4c3)no2)c1
89 | 8.05 | N#Cc1cccc(-c2nc(-c3ccc4nc[nH]c4c3)no2)c1
90 | 3.69 | CCc1ccc(-c2nc(-c3ccc4nc[nH]c4c3)no2)cc1
91 | 12 | CCCCc1ccc(-c2nc(-c3ccc4nc[nH]c4c3)no2)cc1

Each compound was assayed against T1, Nuclear factor erythroid 2-related factor 2 (Homo sapiens) (assay: Activation of Nrf2 in human HepG2-ARE-C8 cells assessed as upregulation of ARE level at 40 uM after 12 hrs by luciferase reporter gene assay relative to control). Conditions: not given.
Type: cell-based

Row | fold change (FC) | SMILES
92 | 1.32 | N#Cc1ccccc1-c1nc(-c2ccc3nc[nH]c3c2)no1
93 | 2.75 | Oc1ccccc1-c1nc(-c2ccc3nc[nH]c3c2)no1
94 | 8.67 | Oc1ccc(-c2nc(-c3ccc4nc[nH]c4c3)no2)cc1
95 | 16.6 | Cc1ccc(-c2nc(-c3ccc4nc[nH]c4c3)no2)cc1
96 | 10.4 | Cc1cccc(-c2nc(-c3ccc4nc[nH]c4c3)no2)c1
97 | 3.24 | COc1cc(-c2nc(-c3ccc4nc[nH]c4c3)no2)cc(OC)c1OC
98 | 16.9 | c1ccc2nc(-c3nc(-c4ccc5nc[nH]c5c4)no3)ccc2c1
99 | 10.7 | COc1ccccc1-c1nc(-c2ccc3nc[nH]c3c2)no1
100 | 8.41 | Cn1cnc2ccc(-c3noc(-c4ccccc4)n3)cc21
101 | 21.8 | O=[N+]([O-])c1cccc(-c2nc(-c3ccc4nc[nH]c4c3)no2)c1
102 | 0.91 | N#Cc1cccc(-c2nc(-c3ccc4nc[nH]c4c3)no2)c1
103 | 5.88 | CCc1ccc(-c2nc(-c3ccc4nc[nH]c4c3)no2)cc1
104 | 37.6 | CCCCc1ccc(-c2nc(-c3ccc4nc[nH]c4c3)no2)cc1

Reference: ChEMBL document CHEMBL3585308, “Discovery and Modification of in Vivo Active Nrf2 Activators with 1,2,4-Oxadiazole Core: Hits Identification and Structure-Activity Relationship Study” (J Med Chem, 2015)
